Converted amounts (≈) assume the structure as drawn.
How the values were obtained:
Format in all cases: functional
Escherichia coli [1] = test: Antimicrobial activity against Escherichia coli J53 transconjugated with Proteus mirabilis pHS10 carrying qnrC gene by CLSI agar dilution method
Proteus mirabilis [2] = test: Antimicrobial activity against Proteus mirabilis 06-489 isolated from infected human urinary tract by CLSI agar dilution method
Escherichia coli [3] = test: Antimicrobial activity against Escherichia coli J53 by CLSI agar dilution method
Proteus mirabilis [4] = test: Antimicrobial activity against Proteus mirabilis 06-489 isolated from infected human urinary tract by Etest; settings: 06-489, Urine
Escherichia coli [5] = test: Antimicrobial activity against Escherichia coli TOP10 harboring pHS12 carrying qnrC gene by CLSI agar dilution method
Escherichia coli [6] = test: Antimicrobial activity against Escherichia coli TOP10 harboring pHS12 carrying ATT to TTA substituted qnrC gene by CLSI agar dilution method
Escherichia coli [7] = test: Antimicrobial activity against Escherichia coli J53 by Etest
Escherichia coli [8] = test: Antimicrobial activity against Escherichia coli ATCC 25922 by CLSI agar dilution method
Escherichia coli [9] = test: Antimicrobial activity against Escherichia coli TOP10 harboring pHS12 carrying ATT to ATG substituted qnrC gene by CLSI agar dilution method
Escherichia coli [10] = test: Antimicrobial activity against Escherichia coli TOP10 harboring pHS12 carrying TTG to TTA substituted qnrC gene by CLSI agar dilution method
Escherichia coli [11] = test: Antimicrobial activity against Escherichia coli TOP10 harboring pHS12 carrying ATG to ACG substituted qnrC gene by CLSI agar dilution method
Escherichia coli [12] = test: Antimicrobial activity against Escherichia coli TOP10 harboring pHS12 carrying TTG to ATG substituted qnrC gene by CLSI agar dilution method
Escherichia coli [13] = test: Antimicrobial activity against Escherichia coli J53 transconjugated with Proteus mirabilis pHS10 carrying qnrC gene by Etest
Escherichia coli [14] = test: Antimicrobial activity against Escherichia coli TOP10 harboring pHS12 carrying TTG to TCG substituted qnrC gene by CLSI agar dilution method

Work on `NCC[C@H](O)C(=O)N[C@@H]1C[C@H](N)[C@@H](O[C@H]2O[C@H](CN)[C@@H](O)[C@H](O)[C@H]2O)[C@H](O)[C@H]1O[C@H]1O[C@H](CO)[C@@H](O)[C@H](N)[C@H]1O` [AMIKACIN] yielded an MIC (Escherichia coli [1]) of 0.5 µg/mL (≈ 0.854 µM), an MIC (Proteus mirabilis [2]; 06-489, Urine) of 8 µg/mL (≈ 13.7 µM) and an MIC (Escherichia coli [3]) of 0.25 µg/mL (≈ 0.427 µM).

In the case of `CC1(C)S[C@@H]2[C@H](NC(=O)[C@H](N)c3ccccc3)C(=O)N2[C@H]1C(=O)O` [AMPICILLIN], the MIC (Escherichia coli [1]) was 128 µg/mL (≈ 366 µM), the MIC (Proteus mirabilis [2]; 06-489, Urine) was 64 µg/mL (≈ 183 µM) and the MIC (Escherichia coli [3]) was 4 µg/mL (≈ 11.4 µM).

`CO/N=C(\C(=O)N[C@@H]1C(=O)N2C(C(=O)O)=C(COC(C)=O)CS[C@H]12)c1csc(N)n1` [CEFOTAXIME] showed an MIC (Escherichia coli [1]) of at most 0.06 µg/mL, an MIC (Proteus mirabilis [2]; 06-489, Urine) of at most 0.06 µg/mL and an MIC (Escherichia coli [3]) of at most 0.06 µg/mL.

Work on `CO[C@@]1(NC(=O)Cc2cccs2)C(=O)N2C(C(=O)O)=C(COC(N)=O)CS[C@@H]21` [CEFOXITIN] yielded an MIC (Escherichia coli [1]) of 4 µg/mL (≈ 9.36 µM), an MIC (Proteus mirabilis [2]; 06-489, Urine) of 2 µg/mL (≈ 4.68 µM) and an MIC (Escherichia coli [3]) of 4 µg/mL (≈ 9.36 µM).

With `CC(C)(O/N=C(\C(=O)N[C@@H]1C(=O)N2C(C(=O)[O-])=C(C[n+]3ccccc3)CS[C@H]12)c1csc(N)n1)C(=O)O` [CEFTAZIDIME] the MIC (Escherichia coli [1]) was 0.06 µg/mL (≈ 0.11 µM), the MIC (Proteus mirabilis [2]; 06-489, Urine) was at most 0.06 µg/mL and the MIC (Escherichia coli [3]) was at most 0.06 µg/mL.

In the case of `CO/N=C(\C(=O)N[C@@H]1C(=O)N2C(C(=O)O)=C(COC(N)=O)CS[C@H]12)c1ccco1` [CEFUROXIME], the MIC (Escherichia coli [1]) was 8 µg/mL (≈ 18.9 µM), the MIC (Proteus mirabilis [2]; 06-489, Urine) was 4 µg/mL (≈ 9.43 µM) and the MIC (Escherichia coli [3]) was 8 µg/mL (≈ 18.9 µM).

Compound `O=C(N[C@H](CO)[C@H](O)c1ccc([N+](=O)[O-])cc1)C(Cl)Cl` [CHLORAMPHENICOL] has an MIC (Escherichia coli [1]) of 64 µg/mL (≈ 198 µM), an MIC (Proteus mirabilis [2]; 06-489, Urine) of 16 µg/mL (≈ 49.5 µM) and an MIC (Escherichia coli [3]) of 8 µg/mL (≈ 24.8 µM).

In the case of `O=C(O)c1cn(C2CC2)c2cc(N3CCNCC3)c(F)cc2c1=O` [CIPROFLOXACIN], the MIC (Proteus mirabilis [4]) was 0.25 µg/mL (≈ 0.754 µM).

`C[C@H]1COc2c(N3CCN(C)CC3)c(F)cc3c(=O)c(C(=O)O)cn1c23.C[C@H]1COc2c(N3CCN(C)CC3)c(F)cc3c(=O)c(C(=O)O)cn1c23.O` [LEVOFLOXACIN] was tested, and the MIC (Proteus mirabilis [4]) was 0.5 µg/mL, the MIC (Escherichia coli [5]) was 0.19 µg/mL and the MIC (Escherichia coli [6]) was 0.125 µg/mL. For the same compound, the MIC (Escherichia coli [7]) was 0.023 µg/mL, the MIC (Escherichia coli [8]) was 0.006 µg/mL and the MIC (Escherichia coli [9]) was 0.125 µg/mL. It also gave an MIC (Escherichia coli [10]) of 0.006 µg/mL, an MIC (Escherichia coli [11]) of 0.19 µg/mL and an MIC (Escherichia coli [12]) of 0.19 µg/mL. For the same compound, the MIC (Escherichia coli [13]) was 0.25 µg/mL.

`CCn1cc(C(=O)O)c(=O)c2ccc(C)nc21` [NALIDIXIC ACID] showed an MIC (Escherichia coli [14]) of 1.5 µg/mL (≈ 6.46 µM), an MIC (Proteus mirabilis [4]) of 16 µg/mL (≈ 68.9 µM) and an MIC (Escherichia coli [5]) of 4 µg/mL (≈ 17.2 µM). For the same compound, the MIC (Escherichia coli [6]) was 3 µg/mL (≈ 12.9 µM), the MIC (Escherichia coli [7]) was 4 µg/mL (≈ 17.2 µM) and the MIC (Escherichia coli [8]) was 1 µg/mL (≈ 4.31 µM). It also gave an MIC (Escherichia coli [9]) of 4 µg/mL (≈ 17.2 µM), an MIC (Escherichia coli [10]) of 1 µg/mL (≈ 4.31 µM) and an MIC (Escherichia coli [11]) of 4 µg/mL (≈ 17.2 µM). For the same compound, the MIC (Escherichia coli [12]) was 4 µg/mL (≈ 17.2 µM) and the MIC (Escherichia coli [13]) was 16 µg/mL (≈ 68.9 µM).

In the case of `Cc1cc(NS(=O)(=O)c2ccc(N)cc2)no1` [SULFAMETHOXAZOLE], the MIC (Escherichia coli [1]) was over 1020 µg/mL, the MIC (Proteus mirabilis [2]; 06-489, Urine) was over 1020 µg/mL and the MIC (Escherichia coli [3]) was 16 µg/mL (≈ 63.2 µM).

`CN(C)[C@@H]1C(O)=C(C(N)=O)C(=O)[C@@]2(O)C(O)=C3C(=O)c4c(O)cccc4[C@@](C)(O)[C@H]3C[C@@H]12` [TETRACYCLINE] gave an MIC (Escherichia coli [1]) of 128 µg/mL (≈ 288 µM), an MIC (Proteus mirabilis [2]; 06-489, Urine) of 128 µg/mL (≈ 288 µM) and an MIC (Escherichia coli [3]) of 1 µg/mL (≈ 2.25 µM).

`COc1cc(Cc2cnc(N)nc2N)cc(OC)c1OC` [TRIMETHOPRIM] gave an MIC (Escherichia coli [1]) of over 128 µg/mL, an MIC (Proteus mirabilis [2]; 06-489, Urine) of over 128 µg/mL and an MIC (Escherichia coli [3]) of 0.25 µg/mL (≈ 0.861 µM).

GENTAMICIN was tested, and the MIC (Escherichia coli [1]) was 4 µg/mL, the MIC (Proteus mirabilis [2]; Urine) was 16 µg/mL and the MIC (Escherichia coli [3]) was 0.125 µg/mL.

— ChEMBL document CHEMBL1649187, “New plasmid-mediated quinolone resistance gene, qnrC, found in a clinical isolate of Proteus mirabilis” (2009)
